Results taken from patent US10611740B2, “Aryl dihydro-2H-benzo[b][1,4]oxazine sulfonamide and related compounds for use as agonists of RORγ and the treatment of disease” (Lycera Corporation, priority 2015, dated 2020).

Legend:
RORγ-LBD = target: T1, RORγ-LBD (Homo sapiens, UniProt P51449); test: RORγ-Ligand Binding Domain (LBD) TR-FRET Assay; format: biochemical;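 for TR-FRET Assay Max Response: 665/615 nm ratio relative to signal without ursolic acid or compound set at 100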
T1 construct: made in house; host or cells: SF9 cells (baculovirus)
T1 sequence (P51449 269-508 limits assumed): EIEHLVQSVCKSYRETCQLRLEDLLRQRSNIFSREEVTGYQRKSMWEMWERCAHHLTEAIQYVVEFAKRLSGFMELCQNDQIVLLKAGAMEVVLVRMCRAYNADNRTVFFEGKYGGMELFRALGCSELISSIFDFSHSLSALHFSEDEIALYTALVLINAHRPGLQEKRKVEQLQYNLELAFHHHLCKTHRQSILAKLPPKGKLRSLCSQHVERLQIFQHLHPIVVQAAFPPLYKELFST
How it was run: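 Compounds, diluted in DMSO and then in assay buffer (1% DMSO final), were combined with His-tagged RORγ-LBD lysate at roughly 3 nM final and a 200 nM biotinylated SRC1 LXXLL peptide. Ursolic acid was included at 2 μM final. Coactivator recruitment was detected by TR-FRET.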

Gal4-RORγ-LBD = target: T2, Gal4-RORγ-LBD (Homo sapiens, UniProt P51449); test: Gal4-RORγ Luciferase Reporter Assay in HEK-293T Cells; format: cell-based; conditions: HEK-293 cells
T2 construct: expressed in transfected cells; host or cells: HEK-293 cells (pcDNA3.1neo plasmid)
T2 sequence (P51449 269-508 limits assumed): T1 sequence (P51449 269-508 limits assumed)
How it was run: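 HEK-293 cells were transiently co-transfected with Gal4-RORγ-LBD and pGL4.31 Gal4-luciferase, with ursolic acid added at 2 μM final. Compounds were incubated overnight at 37° C. in 0.2% DMSO and luminescence read with One-Glo. Max Response is the upper plateau of a 4-parameter logistic fit, with signal lacking ursolic acid or compound set to 100.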

[1] = luciferase reporter, with 2 μM ursolic acid

| Structure (SMILES) | EC50 (RORγ-LBD) | TR-FRET Assay Max Response (RORγ-LBD) | EC50 (Gal4-RORγ-LBD; 2 μM ursolic acid) | Gal4-RORγ Assay Max Response (Gal4-RORγ-LBD; 2 μM ursolic acid) | EC50 (Gal4-RORγ-LBD; [1]) | Gal4-RORγ Assay Max Response (Gal4-RORγ-LBD; [1]) |
| --- | --- | --- | --- | --- | --- | --- |
| CC(C)(C[C@H]1CN(S(=O)(=O)c2cccc(C(F)(F)F)c2)c2cc(-c3cccc(C(F)F)c3)ccc2O1)C(=O)O [Compound 32AL, (S)-3-(6-(3-(difluoromethyl)-phenyl)-4-((3-(trifluoromethyl)-phenyl)sulfonyl)-3,4-dihydro-2H-benzo[b][1,4]oxazin-2-yl)-2,2-dimethylpropanoic acid] | < 500 nM | ** (The symbol “**” indicates a value in the range of greater than 90 to 150) | < 500 nM | ** (The symbol “**” indicates a value in the range of greater than 90 to 150) | – | – |
| CC(C)(C[C@@H]1CN(S(=O)(=O)c2cccc(C(F)(F)F)c2)c2cc(-c3cc(F)cc(Cl)c3F)ccc2O1)C(=O)O [Compound 32AO, (R)-3-(6-(3-chloro-2,5-difluoro-phenyl)-4-((3-(trifluoromethyl)-phenyl)sulfonyl)-3,4-dihydro-2H-benzo[b][1,4]oxazin-2-yl)-2,2-dimethylpropanoic acid] | < 500 nM | ** (The symbol “**” indicates a value in the range of greater than 90 to 150) | 500 to 5000 nM | * (The symbol “*” indicates a value in the range of 25 to 90) | – | – |
| Cc1ccc(Cl)cc1-c1ccc2c(c1)N(S(=O)(=O)c1cccc(C(F)(F)F)c1)C[C@H](CC(C)(C)C(=O)O)O2 [Compound 32AR, (S)-3-(6-(5-chloro-2-methyl-phenyl)-4-((3-(trifluoromethyl)-phenyl)sulfonyl)-3,4-dihydro-2H-benzo[b][1,4]oxazin-2-yl)-2,2-dimethylpropanoic acid] | < 500 nM | ** (The symbol “**” indicates a value in the range of greater than 90 to 150) | < 500 nM | ** (The symbol “**” indicates a value in the range of greater than 90 to 150) | – | – |
| Cc1cc(C)cc(-c2ccc3c(c2)N(S(=O)(=O)c2cccc(C(F)(F)F)c2)C[C@H](CC(C)(C)C(=O)O)O3)c1 [Compound 32AS, (S)-3-(6-(3,5-dimethylphenyl)-4-((3-(trifluoromethyl)phenyl)-sulfonyl)-3,4-dihydro-2H-benzo[b][1,4]oxazin-2-yl)-2,2-dimethylpropanoic acid] | < 500 nM | ** (The symbol “**” indicates a value in the range of greater than 90 to 150) | < 500 nM | ** (The symbol “**” indicates a value in the range of greater than 90 to 150) | – | – |
| Cc1ccc(C)c(-c2ccc3c(c2)N(S(=O)(=O)c2cccc(C(F)(F)F)c2)C[C@H](CC(C)(C)C(=O)O)O3)c1 [Compound 32AT, (S)-3-(6-(2,5-dimethylphenyl)-4-((3-(trifluoromethyl)phenyl)-sulfonyl)-3,4-dihydro-2H-benzo[b][1,4]oxazin-2-yl)-2,2-dimethylpropanoic acid] | < 500 nM | ** (The symbol “**” indicates a value in the range of greater than 90 to 150) | < 500 nM | ** (The symbol “**” indicates a value in the range of greater than 90 to 150) | – | – |
| CC(C)(C[C@H]1CN(S(=O)(=O)c2cccc(C(F)(F)F)c2)c2cc(-c3c(Cl)cccc3Cl)ccc2O1)C(=O)O [Compound 32AU, (S)-3-(6-(2,6-dichlorophenyl)-4-((3-(trifluoromethyl)phenyl)-sulfonyl)-3,4-dihydro-2H-benzo[b][1,4]oxazin-2-yl)-2,2-dimethylpropanoic acid] | < 500 nM | ** (The symbol “**” indicates a value in the range of greater than 90 to 150) | < 500 nM | ** (The symbol “**” indicates a value in the range of greater than 90 to 150) | – | – |
| CC(C)(C[C@H]1CN(S(=O)(=O)c2cccc(C(F)(F)F)c2)c2cc(-c3cc(F)ccc3C(F)(F)F)ccc2O1)C(=O)O [Compound 32AV, (S)-3-(6-(5-fluoro-2-(trifluoro-methyl)phenyl)-4-((3-(trifluoro-methyl)phenyl)sulfonyl)-3,4-dihydro-2H-benzo[b][1,4]oxazin-2-yl)-2,2-dimethylpropanoic acid] | < 500 nM | ** (The symbol “**” indicates a value in the range of greater than 90 to 150) | < 500 nM | ** (The symbol “**” indicates a value in the range of greater than 90 to 150) | – | – |
| CC(C)(C[C@H]1CN(S(=O)(=O)c2cccc(C(F)(F)F)c2)c2cc(-c3cc(Cl)cc(F)c3Cl)ccc2O1)C(=O)O [Compound 32AW, (S)-3-(6-(2,5-dichloro-3-fluoro-phenyl)-4-((3-(trifluoromethyl)-phenyl)sulfonyl)-3,4-dihydro-2H-benzo[b][1,4]oxazin-2-yl)-2,2-dimethylpropanoic acid] | < 500 nM | ** (The symbol “**” indicates a value in the range of greater than 90 to 150) | < 500 nM | ** (The symbol “**” indicates a value in the range of greater than 90 to 150) | – | – |
| Cc1cccc(-c2ccc3c(c2)N(S(=O)(=O)c2cccc(C(F)(F)F)c2)C[C@H](CC(C)(C)C(=O)O)O3)c1Cl [Compound 32AX, (S)-3-(6-(2-chloro-3-methyl-phenyl)-4-((3-(trifluoromethyl)-phenyl)sulfonyl)-3,4-dihydro-2H-benzo[b][1,4]oxazin-2-yl)-2,2-dimethylpropanoic acid] | < 500 nM | ** (The symbol “**” indicates a value in the range of greater than 90 to 150) | < 500 nM | ** (The symbol “**” indicates a value in the range of greater than 90 to 150) | – | – |
| Cc1c(Cl)cccc1-c1ccc2c(c1)N(S(=O)(=O)c1cccc(C(F)(F)F)c1)C[C@H](CC(C)(C)C(=O)O)O2 [Compound 32AZ, (S)-3-(6-(3-chloro-2-methyl-phenyl)-4-((3-(trifluoromethyl)-phenyl)sulfonyl)-3,4-dihydro-2H-benzo[b][1,4]oxazin-2-yl)-2,2-dimethylpropanoic acid] | < 500 nM | ** (The symbol “**” indicates a value in the range of greater than 90 to 150) | < 500 nM | ** (The symbol “**” indicates a value in the range of greater than 90 to 150) | – | – |
| COc1cccc(-c2ccc3c(c2)N(S(=O)(=O)c2cccc(C(F)(F)F)c2)C[C@H](CC(C)(C)C(=O)O)O3)c1 [Compound 32B, (S)-3-(6-(3-methoxyphenyl)-4-((3-(trifluoromethyl)phenyl)sulfonyl)-3,4-dihydro-2H-benzo[b][1,4]oxazin-2-yl)-2,2-dimethylpropanoic acid] | < 500 nM | *** (The symbol “***” indicates a value in the range of greater than 150 to 200) | – | – | < 500 nM | ** (The symbol “**” indicates a value in the range of greater than 90 to 150) |
| Cc1cccc(C)c1-c1ccc2c(c1)N(S(=O)(=O)c1cccc(C(F)(F)F)c1)C[C@H](CC(C)(C)C(=O)O)O2 [Compound 32BA, (S)-3-(6-(2,6-dimethylphenyl)-4-((3-(trifluoromethyl)phenyl)-sulfonyl)-3,4-dihydro-2H-benzo[b][1,4]oxazin-2-yl)-2,2-dimethylpropanoic acid] | < 500 nM | *** (The symbol “***” indicates a value in the range of greater than 150 to 200) | 500 to 5000 nM | ** (The symbol “**” indicates a value in the range of greater than 90 to 150) | – | – |
| Cc1cc(Cl)cc(-c2ccc3c(c2)N(S(=O)(=O)c2cccc(C(F)(F)F)c2)C[C@H](CC(C)(C)C(=O)O)O3)c1 [Compound 32BB, (S)-3-(6-(3-chloro-5-methyl-phenyl)-4-((3-(trifluoromethyl)-phenyl)sulfonyl)-3,4-dihydro-2H-benzo[b][1,4]oxazin-2-yl)-2,2-dimethylpropanoic acid] | < 500 nM | * (The symbol “*” indicates a value in the range of 25 to 90) | < 500 nM | ** (The symbol “**” indicates a value in the range of greater than 90 to 150) | – | – |
| CC(C)(C[C@H]1CN(S(=O)(=O)c2cccc(C(F)(F)F)c2)c2cc(-c3cccc(F)c3C(F)(F)F)ccc2O1)C(=O)O [Compound 32BC, (S)-3-(6-(3-fluoro-2-(trifluoromethyl)phenyl)-4-((3-(trifluoromethyl)phenyl)sulfonyl)-3,4-dihydro-2H-benzo[b][1,4]oxazin-2-yl)-2,2-dimethylpropanoic acid] | < 500 nM | ** (The symbol “**” indicates a value in the range of greater than 90 to 150) | < 500 nM | ** (The symbol “**” indicates a value in the range of greater than 90 to 150) | – | – |
| O=C(O)C1(C[C@H]2CN(S(=O)(=O)c3cccc(C(F)(F)F)c3)c3cc(-c4cc(F)cc(F)c4)ccc3O2)CCC1 [Compound 32BD, (S)-1-((6-(3,5-difluorophenyl)-4-((3-(trifluoromethyl)phenyl)-sulfonyl)-3,4-dihydro-2H-benzo[b][1,4]oxazin-2-yl)methyl)cyclobutane-1-carboxylic acid] | < 500 nM | ** (The symbol “**” indicates a value in the range of greater than 90 to 150) | < 500 nM | ** (The symbol “**” indicates a value in the range of greater than 90 to 150) | – | – |
